Reference: patent US20090142281A1, “Composition Comprising A Coupled Enzyme System” (priority 2005, published 2009)
Read-outs that look alike come from different tables or passages of the source.

How the values were obtained:
Type in all cases: biochemical
Sorbitol oxidase [1] = molecular target: T1, Sorbitol oxidase (Streptomyces coelicolor, UniProt Q9ZBU1)
T1 construct: made in house; host or cells: Streptomyces lividans g3s3 (vector pKB105, PSMM-SOX)
Procedure: Sorbitol oxidase obtained using the methods described in Example 3-4, was tested for finding its activity with various polyol substrates. All substrates used in the assay were 55 mM in 100 mM phosphate buffer pH 7.0 at 25° C. The relative activity using sorbitol as (++++++=100%) is shown below in Table 1. In addition to these substrates, it is contemplated that other substrates, including, but not limited to glycerol, will find use in the present invention.

Sorbitol oxidase [2] = molecular target: T1, Sorbitol oxidase; experiment: Relative activity of sorbitol oxidase on xylitol and sorbitol (ABTS assay); conditions: rate of H2O2 production, substrate in excess, same amount of enzyme
Procedure: The commonly used horse radish peroxidase dye substrate ABTS was incorporated into an assay, measuring the production of H2O2 produced by HOX or GOX respectively. ABTS serves as a chromogenic substrate for peroxidase. Peroxidase in combination with H2O2 facilitates the electron transport from the chromogenic dye, which is oxidised to an intensely green/blue compound.
An assay mixture contained 266 μl sorbitol (Sigma P-5504, 0.055 M in 0.1 M sodium phosphate buffer, pH 6.3), (or alternative substrate, e.g. xylitol), 12 μl 2,2′-Azino-bis(3-ethylbenzothiozoline-6-Sulfonic acid) (ABTS) (Sigma A-9941, 5 mg/ml aqueous solution), 12 μl peroxidase (POD) (Sigma P-6782, 0.1 mg/ml in 0.1 M sodium phosphate buffer, pH 6.3) and 10 μl enzyme (SOX or HOX) aqueous solution.
The assay is performed at 25° C.
The incubation was started by the addition of glucose. The absorbance was monitored at 405 nm in an ELISA reader. A standard curve, based on varying concentrations of H2O2, was used for calculation of enzyme activity according to the definition above.
The purpose was to measure the difference in activity of sorbitol oxidase on D-sorbitol and D-xylitol. The ABTS assay was used as described previously to measure the rate of H2O2 production when both D-sorbitol and D-xylitol was in excess. The same amount of enzyme, as prepared in the previous examples was used in both cases. […]

[3] = test system: hydrogen peroxide production; experiment: Synergy between the two enzymes: initial velocity of H2O2 production in 300 uL ABTS assay; conditions: further enzyme at 1× to 3000× excess over polyol oxidase; especially at dosages greater than 1×
Excerpt: In the example below the amounts of enzyme are given as unit amounts.
A unit of HOX is the amount of enzyme that produced 1 umol H202/min when substrates are in excess.
A unit of GOX is the amount of enzyme that produced 1 umol H202/min when substrates are in excess.
A unit of SOX is the amount of enzyme that produced 1 umol H202/min when substrates are in excess.
The generated sugar will be the limiting factor for the secondary enzyme. As noted above the activity is given as a percentage value of SOX catalysing D-sorbitol when both D-sorbitol and oxygen is in excess.
Initial velocities were measured over 5 minutes in 300 uL ABTS assay (as described previously). The production of rate of hydrogen peroxide production was extrapolated from a standard curve. The measured activity, shown in FIG. 3 and FIG. 4 are given as a percentage value. 100% is defined as the rate of hydrogen peroxide production by sorbitol oxidase alone, when the substrates D-sorbitol and oxygen is in excess (Linear velocity curves)

[4] = In gel overlay activity assay (PMS/NBT) using sorbitol as substrate; conditions: native gel
Excerpt: b) In gel overlay activity assay (PMS/NBT) using sorbitol as substrate.
The cell lysates were fractionated on a native gel that was further tested in an in-gel overlay activity assay using sorbitol as the substrate and an assay based on the PMS mediated reduction of NBT. […] The PMS/NBT is a diagnostic assay for flavoproteins where PMS=phenazine methosulfate is a redox mediator which is reduced by reduced FAD.

[5] = substrate 55 mM in 100 mM phosphate buffer pH 7.0 at 25° C., relative to sorbitol

T1 sequence (Q9ZBU1 other isoform, or with tags, fused parts or gaps): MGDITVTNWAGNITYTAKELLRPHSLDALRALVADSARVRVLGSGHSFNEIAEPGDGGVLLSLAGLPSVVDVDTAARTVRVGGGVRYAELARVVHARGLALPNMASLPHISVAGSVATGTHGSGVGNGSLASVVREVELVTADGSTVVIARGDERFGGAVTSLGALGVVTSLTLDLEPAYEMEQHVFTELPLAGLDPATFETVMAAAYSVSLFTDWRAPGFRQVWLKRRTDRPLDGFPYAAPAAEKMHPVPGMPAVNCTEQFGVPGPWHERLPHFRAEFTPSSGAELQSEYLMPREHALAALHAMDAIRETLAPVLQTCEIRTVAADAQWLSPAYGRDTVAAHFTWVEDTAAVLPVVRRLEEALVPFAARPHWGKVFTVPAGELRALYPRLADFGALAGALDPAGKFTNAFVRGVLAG

| Compound | Relative Activity (+, 0) (Sorbitol oxidase [1]; [5]) | Relative activity% (Sorbitol oxidase [2]) | Relative Activity (+, 0) (Sorbitol oxidase [1]; pH 7) | further results |
| --- | --- | --- | --- | --- |
| OC[C@@H](O)[C@@H](O)[C@H](O)[C@H](O)CO [D-Mannitol] | + + + |  |  |  |
| OC[C@@H](O)[C@@H](O)[C@H](O)[C@@H](O)CO [D-Sorbitol] | + + + + + + | 100% |  |  |
| OC[C@@H](O)[C@H](O)[C@@H](O)CO [D-Xylitol] |  | 47.6% | + + + + |  |
| OCCO [Ethylene glycol] |  |  | 0 |  |
| CC(O)CO (stereo not drawn) [Propylene glycol] | 0 |  |  |  |
| glucose oxidase [reference compound] |  |  |  | synergy in initial velocity of H2O2 production (FIG. 4) [3]: dramatic synergy; activity towards sorbitol (stained band) [4]: not active towards sorbitol |
